Earlier results in patent US20030072777A1, “Combinatorial anti-acne compositions” (priority 2001, published 2003).
Like-named read-outs stand apart in the source and are kept apart here.

Legend:
[1] = tested on: P. acnes; settings: 5 percent benzoyl peroxide two times daily for five days
[2] = tested on: inflammatory lesions and comedones of acne vulgaris
[3] = tested on: sebaceous glands; settings: retinoid treatment

Row | SMILES | Reduction of P. acnes population [1] | Average percent reduction of non-inflamed lesions (mean comedone counts) ([2]; Week 2, data from Chalker et al. FIG. 1) [%] | Average percent reduction of inflamed lesions (mean inflammatory lesion counts) ([2]; Week 2, data from Chalker et al. FIG. 4) [%] | Average percent reduction of non-inflamed lesions (mean comedone counts) ([2]; Week 4, data from Chalker et al. FIG. 1) [%] | Average percent reduction of inflamed lesions (mean inflammatory lesion counts) ([2]; Week 4, data from Chalker et al. FIG. 4) [%] | Average percent reduction of non-inflamed lesions (mean comedone counts) ([2]; Week 6, data from Chalker et al. FIG. 1) [%] | Average percent reduction of inflamed lesions (mean inflammatory lesion counts) ([2]; Week 6, data from Chalker et al. FIG. 4) [%] | Shrinkage of the glands [3]
1 | O=C(OOC(=O)c1ccccc1)c1ccccc1 [5.0% Benzoyl peroxide, Benzoyl peroxide] | more than 95% | 12 | 27 | 15 | 21 | 28 | 46 | 
2 | CC1=C(/C=C/C(C)=C/C=C/C(C)=C\C(=O)O)C(C)(C)CCC1 [isotretinoin, 13-cis retinoic acid] |  |  |  |  |  |  |  | about 90%
